Measured values taken from patent US8841284B2, “Compound having neurite-outgrowing activity” (Lead Chemical Co., Ltd, priority 2009, dated 2014).

Legend:
[1] = tested on: rat fetus (viviparity 17 days) cerebral cortex neuron; assay: Neurite-outgrowing activity, rat fetus cerebral cortex neuron, poly-L-lysine-coated culture vessel; type: cell-based; conditions: for Neurite Density / Neurite Length / Neurite Thickness: relative amount, basal medium = 1
Procedure: Rat fetus (viviparity 17 days) cerebral cortex neuron (Sumitomo Bakelite Co., Ltd.)
From a frozen cerebral tissue, using an attached protocol and attached reagents, a cerebral cortex neuron was prepared, was cultured in an NSF-1 (neurotrophic factor; name of substance or the like is not disclosed)-added PNBM medium for 2 hours, and then in a PNBM medium containing the sample (the compound produced in Example 1).
The dissemination was performed with a neuron concentration of 2×10^5 cells/0.5 mL/well (24-well-plate).
(§1) The sample (the compound produced in Example 1) was dissolved in DMSO to prepare a 10 mM solution. The 10 mM solution was diluted with DMSO to prepare a 1 mM solution. Further dilution of the solution was performed with a PNBM medium.
(§2) Finally, sample-added media of 0.2 μM concentration and 1 μM concentration were prepared. With respect to the mNGF medium, a 5 ng/mL mNGF-added medium and a 25 ng/mL mNGF-added medium were prepared.
Culture in Poly-L-Lysine-Coated Culture Vessel
(§3) On the third day of the culture, the culture medium was exchanged. Photographs of a neuron on the fifth day of the culture are shown in the drawings (a photograph of a neuron on the fifth day of the culture in the basal medium (additive-free) is shown in FIG. 4; a photograph of a neuron on the fifth day of the culture in the neurotrophic factor (NSF-1)-added medium is shown in FIG. 5; and a photograph of a neuron on the fifth day of the culture in the sample-added medium (1 μM concentration) is shown in FIG. 6). Here, the number in Table 1 indicates a relative amount when the value in the basal medium (additive-free) is assumed to be 1.

[2] = tested on: rat spinal cord dorsal root ganglion neuron; assay: Neurite (axon)-outgrowing activity, rat spinal cord dorsal root ganglion neuron, laminin-coated culture vessel; type: cell-based; conditions: fifth day of culture; for Neurite (axon) Density / Neurite (axon) Length / Neurite (axon) Thickness: relative amount, basal medium = 1
Procedure: Rat spinal cord dorsal root ganglion (Takara Bio Inc.)
Laminin-coated: a well was coated with a culture supernatant containing laminin 5B to be used.
A spinal cord neuron in a frozen state was thawed according to the attached protocol and the neuron was cultured in an NSF-1-added PNBM medium for 2 hours and then in a PNBM medium containing the sample (the compound produced in Example 1).
The dissemination was performed with a spinal cord neuron concentration of 2.5×10^4 cells/0.1 mL/well (96-well-plate).
as §1, §2
Culture in Laminin-Coated Culture Vessel
A spinal cord neuron can easily outgrow a neurite (axon) and outgrows a neurite even in an additive-free medium.
as §3, with “FIG. 10;” for “FIG. 4;”, “FIG. 11;” for “FIG. 5;”, “FIG. 12).” for “FIG. 6).”, “Table 2” for “Table 1”

[3] = tested on: rat spinal cord dorsal root ganglion neuron; assay: as above; type: cell-based; conditions: 1 μM; second day of culture; FIG. 9

For `C[C@@H]([C@H]1CC[C@H]2[C@@H]3CCc4cc(O)ccc4[C@H]3CC[C@]12C)[C@H]1CC=C(CO)C(=O)O1` [Example 1, 6-[1-(3-hydroxy-13-methyl-7,8,9,11,12,13,14,15,16,17-decahydro-6H-cyclopenta[a]phenanthren-17-yl)-ethyl]-3-hydroxymethyl-5,6-dihydropyran-2-one], the melting point was 248 to 250 °C, the “Neurite Density” value ([1]; 0.2 μM, fifth day of culture) was 1 and the “Neurite Length” value ([1]; 0.2 μM, fifth day of culture) was 1. The “Neurite Thickness” value ([1]; 0.2 μM, fifth day of culture) was 1, the “neurite-outgrowing activity (in words)” value ([1]; 1 μM, fifth day of culture) was “has a neurite-outgrowing activity” and the “Neurite Density” value ([1]; 1 μM, fifth day of culture) was 1.5. The “Neurite Length” value ([1]; 1 μM, fifth day of culture) was 2, the “Neurite Thickness” value ([1]; 1 μM, fifth day of culture) was 2 and the “number of neurites (in words)” value ([1]; 1 μM, second day of culture, FIG. 3) was “the number of neurites increased more than in the basal medium (additive-free), but less than in the neurotrophic factor (NSF-1)-added medium”. The “Neurite (axon) Density” value ([2]; 0.2 μM) was 2, the “Neurite (axon) Length” value ([2]; 0.2 μM) was 2 and the “Neurite (axon) Thickness” value ([2]; 0.2 μM) was 1. For the same molecule, the “axon length and thickness (in words)” value ([2]; 1 μM) was “the axon outgrew longer but did not become thicker”, the “Neurite (axon) Density” value ([2]; 1 μM) was 2 and the “Neurite (axon) Length” value ([2]; 1 μM) was 2.5. For the same molecule, the “Neurite (axon) Thickness” value ([2]; 1 μM) was 1 and the “axon outgrowth (in words)” value [3] was “the axon outgrew more than in the basal medium (additive-free), but less than in the neurotrophic factor (NSF-1)-added medium”.

B1: NGF: mNGF2. 5S (alomone labs, PRODUCT#N-100), used as mNGF-added medium (protein, UniProt P01139 122-241, looked up)
Beta-nerve growth factor: SSTHPVFHMGEFSVCDSVSVWVGDKTTATDIKGKEVTVLAEVNINNSVFRQYFFETKCRASNPVESGCRGIDSKHWNSYCTTTHTFVKALTTDEKQAAWRFIRIDTACVCVLSRKATRRG
modifications: Beta-nerve growth factor
notes: mNGF2; 5S (alomone labs, PRODUCT#N-100), used as mNGF-added medium
For B1, the “Neurite Density” value ([1]; 5 ng/mL, fifth day of culture) was 2, the “Neurite Length” value ([1]; 5 ng/mL, fifth day of culture) was 2 and the “Neurite Thickness” value ([1]; 5 ng/mL, fifth day of culture) was 2. The “Neurite Density” value ([1]; 25 ng/mL, fifth day of culture) was 2.5, the “Neurite Length” value ([1]; 25 ng/mL, fifth day of culture) was 2 and the “Neurite Thickness” value ([1]; 25 ng/mL, fifth day of culture) was 2. The “Neurite (axon) Density” value ([2]; 5 ng/mL) was 2, the “Neurite (axon) Length” value ([2]; 5 ng/mL) was 2 and the “Neurite (axon) Thickness” value ([2]; 5 ng/mL) was 1. The “Neurite (axon) Density” value ([2]; 25 ng/mL) was 2, the “Neurite (axon) Length” value ([2]; 25 ng/mL) was 3 and the “Neurite (axon) Thickness” value ([2]; 25 ng/mL) was 2.
